According to patent US7902188B2, “Morpholine dopamine agonists” (Pfizer Inc., priority 2002, dated 2011):

Biological target: T1, human dopamine D2long receptor (Homo sapiens, UniProt P14416)
T1 construct: expressed in transfected cells; host or cells: GH4C1 rat pituitary cells
Test: Inhibition via dopamine D2 receptors of forskolin-stimulated adenylate cyclase activity (cAMP Flashplate, GH4C1/hD2L cells)
Type: cell-based
Conditions: D2 EC50 value divided by D3 EC50 value; where D2 EC50 was >10000, a figure of 10000 was used
Procedure: A suitable assay for determining functionally the activity of a compound at D3 and/or […] dopamine receptors is detailed hereinbelow. Compounds are evaluated as agonists or antagonists at the dopamine D2 and D3 receptors by looking at cAMP levels in a GH4C1 and CHO cell-line expressing the human D2 and D3 receptors, respectively.
Inhibition Via Dopamine D2 Receptors of Forskolin Stimulated Adenylate Cyclase Activity Materials Cell Culture Media:
4× assay stock of 20 μM made by carrying out a 1000-fold dilution in PBS buffer, 25 μl of the 20 μM stock is added to a final assay volume of 100 μl, giving a final assay concentration of 5 μM.
• Pramipexole is included as a reference standard. A 10-point, semi-log curve is generated every 4 plates. Compound responses are normalised to the minimum (0 nM pramipexole) and maximum (100 nM Pramipexole) responses generated by the cells. All test compounds may also be tested via a 10-point (semi-log) curve. • Test compounds are dissolved in 100% DMSO to yield a stock concentration of 10 mM, (1000× the final assay concentration required, e.g. 10 mM will give a top concentration of 10000 nM). • Pramipexole is dissolved in 100% DMSO to give a concentration of 10 mM. […]

T1 sequence (P14416 whole entry): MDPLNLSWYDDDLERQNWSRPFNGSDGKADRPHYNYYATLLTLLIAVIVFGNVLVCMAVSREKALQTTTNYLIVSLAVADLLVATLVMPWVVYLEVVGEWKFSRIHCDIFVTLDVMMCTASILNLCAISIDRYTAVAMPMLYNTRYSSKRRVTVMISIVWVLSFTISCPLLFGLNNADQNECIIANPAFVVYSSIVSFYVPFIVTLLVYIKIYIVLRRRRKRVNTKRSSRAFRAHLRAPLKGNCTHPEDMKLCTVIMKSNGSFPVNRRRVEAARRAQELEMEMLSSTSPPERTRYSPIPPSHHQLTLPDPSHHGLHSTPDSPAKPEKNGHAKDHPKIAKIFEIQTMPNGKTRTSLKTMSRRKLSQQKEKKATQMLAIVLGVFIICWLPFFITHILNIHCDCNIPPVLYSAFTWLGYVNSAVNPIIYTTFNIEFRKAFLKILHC

CCCN1CCO[C@H](c2cccc(O)c2)C1.Cl [Example 8, R-(−)-3-(4-Propylmorpholin-2-yl)phenol hydrochloride]
selectivity for D3 over D2: 1315.8 fold
